Reference: patent publication US20260092071A1, “COMPOUNDS AND COMPOSITIONS AS SMARCA2/4 DEGRADERS AND USES THEREOF” (REGENTS OF THE UNIVERSITY OF MICHIGAN, priority 2022, published 2026)
Where two headings read alike, the source gives them in different places.

Legend:
SMARCA2 = SMARCA2 (Homo sapiens, UniProt P51531); experiment: HiBiT assay for protein degradation, Hela SMARCA2-HiBiT cells (A series); format: cell-based; set-up: Hela cells were genetically modified via CRISPR/Cas9 to fuse HiBiT to the carboxy terminus of SMARCA2; host or cells: HeLa (CRISPR/Cas9 HiBiT knock-in); conditions: for DC50: read-out: SMARC A2 Hela HiBit DC50; for Dmax: read-out: SMARC A2 Hela HiBit Dmax (%);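 as to SMARC A2 Hela HiBit Dmax (%): 24 h compound treatment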
SMARCA2, sequence (P51531 whole entry, the tested form may be a part): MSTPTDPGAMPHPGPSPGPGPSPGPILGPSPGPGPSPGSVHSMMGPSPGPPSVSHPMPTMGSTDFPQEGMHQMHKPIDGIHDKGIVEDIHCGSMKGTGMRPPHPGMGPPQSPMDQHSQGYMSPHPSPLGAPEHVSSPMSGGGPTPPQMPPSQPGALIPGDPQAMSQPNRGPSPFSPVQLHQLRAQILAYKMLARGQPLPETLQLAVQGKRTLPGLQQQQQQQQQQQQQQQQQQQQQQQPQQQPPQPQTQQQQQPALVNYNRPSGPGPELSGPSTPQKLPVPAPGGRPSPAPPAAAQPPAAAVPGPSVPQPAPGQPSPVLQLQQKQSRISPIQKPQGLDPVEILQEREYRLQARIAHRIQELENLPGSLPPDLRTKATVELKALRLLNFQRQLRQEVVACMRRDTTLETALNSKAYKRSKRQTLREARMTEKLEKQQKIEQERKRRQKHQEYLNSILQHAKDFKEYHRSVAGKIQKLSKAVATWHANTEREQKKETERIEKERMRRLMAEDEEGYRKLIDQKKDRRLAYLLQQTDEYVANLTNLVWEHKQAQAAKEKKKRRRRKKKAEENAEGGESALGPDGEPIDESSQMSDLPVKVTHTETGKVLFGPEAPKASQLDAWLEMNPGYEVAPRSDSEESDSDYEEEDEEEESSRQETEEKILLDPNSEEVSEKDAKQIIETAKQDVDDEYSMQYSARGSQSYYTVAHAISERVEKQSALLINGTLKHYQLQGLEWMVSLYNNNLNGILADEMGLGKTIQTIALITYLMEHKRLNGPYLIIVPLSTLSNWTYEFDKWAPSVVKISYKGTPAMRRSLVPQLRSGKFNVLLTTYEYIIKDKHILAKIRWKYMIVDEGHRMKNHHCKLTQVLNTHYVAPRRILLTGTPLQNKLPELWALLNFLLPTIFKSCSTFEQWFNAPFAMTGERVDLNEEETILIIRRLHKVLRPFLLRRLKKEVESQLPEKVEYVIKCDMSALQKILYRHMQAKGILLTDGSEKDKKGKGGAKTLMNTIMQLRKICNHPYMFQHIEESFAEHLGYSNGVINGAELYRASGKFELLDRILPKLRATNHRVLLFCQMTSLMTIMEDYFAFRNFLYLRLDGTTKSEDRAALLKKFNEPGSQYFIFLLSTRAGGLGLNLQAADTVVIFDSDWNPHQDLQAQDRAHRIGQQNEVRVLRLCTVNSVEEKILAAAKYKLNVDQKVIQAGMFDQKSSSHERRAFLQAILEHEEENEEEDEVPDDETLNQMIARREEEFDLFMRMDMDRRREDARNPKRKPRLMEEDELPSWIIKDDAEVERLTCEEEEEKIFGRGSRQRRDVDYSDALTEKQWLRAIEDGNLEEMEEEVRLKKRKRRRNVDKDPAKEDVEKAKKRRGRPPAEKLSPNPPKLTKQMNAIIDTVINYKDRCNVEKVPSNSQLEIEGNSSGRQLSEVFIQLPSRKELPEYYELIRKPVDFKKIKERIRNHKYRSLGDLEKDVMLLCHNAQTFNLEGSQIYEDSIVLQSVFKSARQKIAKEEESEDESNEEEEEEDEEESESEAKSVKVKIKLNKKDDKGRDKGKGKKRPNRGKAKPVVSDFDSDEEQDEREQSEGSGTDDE
Outline: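 HeLa cells engineered by CRISPR/Cas9 to carry a HiBiT tag fused to the C-terminus of SMARCA2 (Promega CS302365) were grown in DMEM supplemented with FBS and penicillin-streptomycin. After treatment, remaining SMARCA2 protein was quantified with the Nano-Glo® HiBiT Lytic Detection Assay (Promega N3050), and curves were fitted in GraphPad Prism.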

SMARCA4 = SMARCA4 (Homo sapiens, UniProt P51532); experiment: HiBiT assay for protein degradation, Hela SMARCA4-HiBiT cells (A series); format: cell-based; set-up: fuse HiBiT to the carboxy terminus of SMARCA2 (Promega CS302365) or SMARCA4 (Promega CS3023225); host or cells: HeLa (CRISPR/Cas9 HiBiT knock-in); conditions: for DC50: read-out: SMARC A4 Hela HiBit DC50
SMARCA4, sequence (P51532 whole entry, the tested form may be a part): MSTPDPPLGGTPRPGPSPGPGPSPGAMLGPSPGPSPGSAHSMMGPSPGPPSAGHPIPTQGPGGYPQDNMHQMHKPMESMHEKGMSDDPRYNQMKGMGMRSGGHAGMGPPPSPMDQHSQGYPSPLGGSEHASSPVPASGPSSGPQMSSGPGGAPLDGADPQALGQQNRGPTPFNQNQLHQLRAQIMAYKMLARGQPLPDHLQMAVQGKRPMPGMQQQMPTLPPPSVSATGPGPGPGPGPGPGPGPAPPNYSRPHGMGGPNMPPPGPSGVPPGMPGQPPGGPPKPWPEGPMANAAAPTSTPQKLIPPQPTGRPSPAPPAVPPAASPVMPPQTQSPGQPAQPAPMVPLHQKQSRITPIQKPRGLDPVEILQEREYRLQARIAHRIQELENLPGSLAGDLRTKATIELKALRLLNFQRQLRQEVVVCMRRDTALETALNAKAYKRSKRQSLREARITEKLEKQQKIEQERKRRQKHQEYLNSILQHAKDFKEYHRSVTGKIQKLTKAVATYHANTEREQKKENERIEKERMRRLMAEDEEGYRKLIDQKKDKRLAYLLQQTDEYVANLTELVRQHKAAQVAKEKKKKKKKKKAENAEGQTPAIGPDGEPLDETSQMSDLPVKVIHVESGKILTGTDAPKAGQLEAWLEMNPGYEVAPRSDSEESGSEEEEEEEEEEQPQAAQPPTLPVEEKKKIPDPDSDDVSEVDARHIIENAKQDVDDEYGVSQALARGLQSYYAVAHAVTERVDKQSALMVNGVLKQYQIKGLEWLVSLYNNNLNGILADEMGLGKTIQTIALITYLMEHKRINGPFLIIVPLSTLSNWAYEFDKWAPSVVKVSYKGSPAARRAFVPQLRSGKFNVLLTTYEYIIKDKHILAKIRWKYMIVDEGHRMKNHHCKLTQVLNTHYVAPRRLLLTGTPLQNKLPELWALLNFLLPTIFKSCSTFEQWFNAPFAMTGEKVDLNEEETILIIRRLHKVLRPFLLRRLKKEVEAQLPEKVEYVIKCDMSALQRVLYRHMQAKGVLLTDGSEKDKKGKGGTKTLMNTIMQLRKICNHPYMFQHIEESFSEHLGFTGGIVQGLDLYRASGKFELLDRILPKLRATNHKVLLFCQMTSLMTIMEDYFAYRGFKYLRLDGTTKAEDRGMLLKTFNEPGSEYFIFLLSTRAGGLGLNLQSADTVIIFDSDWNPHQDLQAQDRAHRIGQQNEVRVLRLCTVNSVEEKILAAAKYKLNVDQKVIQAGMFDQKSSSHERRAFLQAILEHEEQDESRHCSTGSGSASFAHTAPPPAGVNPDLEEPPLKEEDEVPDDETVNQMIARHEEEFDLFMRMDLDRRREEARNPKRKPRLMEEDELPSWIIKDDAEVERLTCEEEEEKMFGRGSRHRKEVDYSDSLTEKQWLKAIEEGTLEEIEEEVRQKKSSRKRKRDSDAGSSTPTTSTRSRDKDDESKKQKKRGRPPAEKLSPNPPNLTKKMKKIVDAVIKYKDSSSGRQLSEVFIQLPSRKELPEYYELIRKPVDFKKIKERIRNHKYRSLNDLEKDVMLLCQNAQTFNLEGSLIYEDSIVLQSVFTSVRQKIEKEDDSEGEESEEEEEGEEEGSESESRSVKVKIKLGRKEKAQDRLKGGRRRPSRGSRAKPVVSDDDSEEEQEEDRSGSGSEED
Outline: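 HeLa cells engineered by CRISPR/Cas9 to carry a HiBiT tag fused to the C-terminus of SMARCA4 (Promega CS3023225) were grown in DMEM supplemented with FBS and penicillin-streptomycin. After compound exposure, remaining SMARCA4 protein was quantified using the Nano-Glo® HiBiT Lytic Detection Assay (Promega N3050), and curves were fitted in GraphPad Prism.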

[1] = Hela SMARCA2-HiBiT cells, 24 hours treatment
[2] = Hela SMARCA4-HiBiT cells, 24 hours treatment
[3] = Hela SMARCA4-HiBiT cells, 24 hours treatment, read-out: SMARC A4 Hela HiBit Dmax

Question: `Cc1ncsc1-c1ccc([C@H](C)NC(=O)[C@@H]2C[C@@H](O)CN2C(=O)[C@H](C2CCCCC2)n2cc([C@H]3CC[C@H](CN4CCC(c5ccc6c(c5)-n5c(nc(=O)c7c(Cl)cccc75)C65CCCCC5)CC4)CC3)nn2)cc1` [Compound A118, (2S,4R)-1-((S)-2-(4-((1r,4S)-4-((4-(4′-chloro-5′-oxo-5′H-spiro[cyclohexane-1,7′-indolo[1,2-a]quinazolin]-10′-yl)piperidin-1-yl)methyl)cyclohexyl)-1H-1,2,3-triazol-1-yl)-2-cyclohexylacetyl)-4-hydroxy-N—((S)-1-(4-(4-methylthiazol-5-yl)phenyl)ethyl)pyrrolidine-2-carboxamide] was tested. Which DC50 (SMARCA2; [1]) did it give?
Answer: < 10 nM

Question: And the Dmax (SMARCA2; [1])?
Answer: > 90%

Question: And the DC50 (SMARCA4; [2])?
Answer: 100 to 1000 nM

Question: What about the Dmax (SMARCA4; [3]) of the same compound?
Answer: 50 to 69%

Question: For `Cc1ncsc1-c1ccc([C@H](CN2CCOCC2)NC(=O)[C@@H]2C[C@@H](O)CN2C(=O)[C@@H](n2cc([C@H]3C[C@H](CN4CC5(CCC(c6ccc7c(c6)-n6c(nc(=O)c8c(Cl)cccc86)C76CCCCC6)CC5)C4)C3)nn2)C(C)(C)C)cc1` [Compound A88, (2S,4R)-1-((S)-2-(4-((1r,3S)-3-((7-(4′-chloro-5′-oxo-5′H-spiro[cyclohexane-1,7′-indolo[1,2-a]quinazolin]-10′-yl)-2-azaspiro[3.5]nonan-2-yl)methyl)cyclobutyl)-1H-1,2,3-triazol-1-yl)-3,3-dimethylbutanoyl)-4-hydroxy-N—((R)-1-(4-(4-methylthiazol-5-yl)phenyl)-2-morpholinoethyl)pyrrolidine-2-carboxamide], which DC50 (SMARCA2; [1]) is on record?
Answer: 10 to 100 nM

Question: What about the Dmax (SMARCA2; [1]) of the same compound?
Answer: > 90%

Question: And the DC50 (SMARCA4; [2])?
Answer: 10 to 100 nM

Question: And the Dmax (SMARCA4; [3])?
Answer: 70 to 90%

Question: For `Cc1ncsc1-c1ccc([C@H](CN2CCS(=O)(=O)CC2)NC(=O)[C@@H]2C[C@@H](O)CN2C(=O)[C@@H](n2cc([C@H]3CC[C@H](CN4CCC(c5ccc6c(c5)-n5c(nc(=O)c7c(Cl)cccc75)C65CCCCC5)CC4)CC3)nn2)C(C)(C)C)cc1` [Compound A72, (2S,4R)-1-((S)-2-(4-((1r,4S)-4-((4-(4′-chloro-5′-oxo-5′H-spiro[cyclohexane-1,7′-indolo[1,2-a]quinazolin]-10′-yl)piperidin-1-yl)methyl)cyclohexyl)-1H-1,2,3-triazol-1-yl)-3,3-dimethylbutanoyl)-N—((R)-2-(1,1-dioxidothiomorpholino)-1-(4-(4-methylthiazol-5-yl)phenyl)ethyl)-4-hydroxypyrrolidine-2-carboxamide], which DC50 (SMARCA2; [1]) is on record?
Answer: < 100 nM

Question: What about the Dmax (SMARCA2; [1]) of the same compound?
Answer: > 90%

Question: And the DC50 (SMARCA4; [2])?
Answer: > 1000 nM

Question: What about the Dmax (SMARCA4; Hela SMARCA4-HiBiT cells, 24 hours treatment, read-out: SMARC A4 Hela HiBit Dmax(%)) of the same compound?
Answer: < 50%

Question: How did the DC50 (SMARCA2; [1]) turn out when `Cc1ncsc1-c1ccc([C@@H](NC(=O)[C@@H]2C[C@@H](O)CN2C(=O)[C@@H](n2cc(C3CC3)nn2)C(C)(C)C)C(=O)N2CCC3(CCC(CN4CCC(c5ccc6c(c5)-n5c(nc(=O)c7c(Br)cccc75)C65CCCCC5)CC4)CC3)CC2)cc1` [Compound A137, (2S,4R)—N—((R)-2-(9-((4-(4′-bromo-5′-oxo-5′H-spiro[cyclohexane-1,7′-indolo[1,2-a]quinazolin]-10′-yl)piperidin-1-yl)methyl)-3-azaspiro[5.5]undecan-3-yl)-1-(4-(4-methylthiazol-5-yl)phenyl)-2-oxoethyl)-1-((S)-2-(4-cyclopropyl-1H-1,2,3-triazol-1-yl)-3,3-dimethylbutanoyl)-4-hydroxypyrrolidine-2-carboxamide] was run?
Answer: < 10 nM

Question: And the Dmax (SMARCA2; [1])?
Answer: > 90%

Question: And the DC50 (SMARCA4; [2])?
Answer: < 10 nM

Question: What about the Dmax (SMARCA4; [3]) of the same compound?
Answer: 70 to 90%

Question: What does the source list for `Cc1ncsc1-c1ccc([C@H](CC(=O)N2CCC3(CCC(CN4CCC(c5ccc6c(c5)-n5c(nc(=O)c7c(Br)cccc75)C65CCCCC5)CC4)CC3)CC2)NC(=O)[C@@H]2C[C@@H](O)CN2C(=O)[C@@H](n2cc(C3CC3)nn2)C(C)(C)C)cc1` [Compound A142, (2S,4R)—N—((S)-3-(9-((4-(4′-bromo-5′-oxo-5′H-spiro[cyclohexane-1,7′-indolo[1,2-a]quinazolin]-10′-yl)piperidin-1-yl)methyl)-3-azaspiro[5.5]undecan-3-yl)-1-(4-(4-methylthiazol-5-yl)phenyl)-3-oxopropyl)-1-((S)-2-(4-cyclopropyl-1H-1,2,3-triazol-1-yl)-3,3-dimethylbutanoyl)-4-hydroxypyrrolidine-2-carboxamide]?
Answer: DC50 (SMARCA2; [1]): < 10 nM; Dmax (SMARCA2; [1]): > 90%; DC50 (SMARCA4; [2]): < 10 nM; Dmax (SMARCA4; [3]): 70 to 90%

Question: With `COC(=O)C1CCN(C[C@H](NC(=O)[C@@H]2C[C@@H](O)CN2C(=O)[C@@H](n2cc([C@H]3CC[C@H](CN4CCC(c5ccc6c(c5)-n5c(nc(=O)c7c(Cl)cccc75)C65CCCCC5)CC4)CC3)nn2)C(C)(C)C)c2ccc(-c3scnc3C)cc2)CC1` [Compound A153, methyl 1-((R)-2-((2S,4R)-1-((S)-2-(4-((1r,4S)-4-((4-(4′-chloro-5′-oxo-5′H-spiro[cyclohexane-1,7′-indolo[1,2-a]quinazolin]-10′-yl)piperidin-1-yl)methyl)cyclohexyl)-1H-1,2,3-triazol-1-yl)-3,3-dimethylbutanoyl)-4-hydroxypyrrolidine-2-carboxamido)-2-(4-(4-methylthiazol-5-yl)phenyl)ethyl)piperidine-4-carboxylate] as the compound, how does the DC50 (SMARCA2; [1]) read?
Answer: < 10 nM

Question: What about the Dmax (SMARCA2; [1]) of the same compound?
Answer: > 90%

Question: And the DC50 (SMARCA4; [2])?
Answer: > 1000 nM

Question: What about the Dmax (SMARCA4; [3]) of the same compound?
Answer: 50 to 69%

Question: For `Cc1ncsc1-c1ccc([C@H](CN2CCOCC2)NC(=O)[C@@H]2C[C@@H](O)CN2C(=O)[C@H](C2CCCCC2)n2cc(-c3ccc(CN4CCC(c5ccc6c(c5)-n5c(nc(=O)c7c(Br)cccc75)C65CCCCC5)CC4)cc3)nn2)cc1` [Compound A128, (2S,4R)-1-((S)-2-(4-(4-((4-(4′-bromo-5′-oxo-5′H-spiro[cyclohexane-1,7′-indolo[1,2-a]quinazolin]-10′-yl)piperidin-1-yl)methyl)phenyl)-1H-1,2,3-triazol-1-yl)-2-cyclohexylacetyl)-4-hydroxy-N—((R)-1-(4-(4-methylthiazol-5-yl)phenyl)-2-morpholinoethyl)pyrrolidine-2-carboxamide], which DC50 (SMARCA2; [1]) is on record?
Answer: 100 to 1000 nM

Question: What about the Dmax (SMARCA2; [1]) of the same compound?
Answer: 50 to 69%

Question: And the DC50 (SMARCA4; [2])?
Answer: > 1000 nM

Question: And the Dmax (SMARCA4; [3])?
Answer: < 50%

Question: How did the Dmax (SMARCA2; HeLa) turn out when `Cc1ncsc1-c1ccc([C@H](C)NC(=O)[C@@H]2C[C@@H](O)CN2C(=O)[C@@H](NC(=O)CCCN2CCC(c3ccc4c(c3)C3(CCCCC3)c3nc(=O)c5c(Cl)cccc5n3-4)CC2)C(C)(C)C)cc1` [Compound A7, (2S,4R)-1-((S)-2-(4-(4-(4′-chloro-5′-oxo-5′H-spiro[cyclohexane-1,7′-indolo[1,2-a]quinazolin]-9′-yl)piperidin-1-yl)butanamido)-3,3-dimethylbutanoyl)-4-hydroxy-N—((S)-1-(4-(4-methylthiazol-5-yl)phenyl)ethyl) pyrrolidine-2-carboxamide] was run?
Answer: 70 to 90%

Question: And the DC50 (SMARCA2; [1])?
Answer: 100 to 500 nM

Question: What about the Dmax (SMARCA4; HeLa, read-out: SMARC A4 Hela HiBit Dmax(%)) of the same compound?
Answer: < 50%

Question: What about the “SMARC A4 Hela HiBit DC50(nM)” value (SMARCA4; [2]) of the same compound?
Answer: No fit

Question: With `Cc1nc(C)c(-c2ccc([C@H](CN3CCOCC3)NC(=O)[C@@H]3C[C@@H](O)CN3C(=O)[C@@H](n3cc([C@H]4CC[C@H](CN5CCC(c6ccc7c(c6)-n6c(nc(=O)c8c(Cl)cccc86)C76CCCCC6)CC5)CC4)nn3)C(C)(C)C)cc2)o1` [Compound A166, (2S,4R)-1-((S)-2-(4-((1r,4S)-4-((4-(4′-chloro-5′-oxo-5′H-spiro[cyclohexane-1,7′-indolo[1,2-a]quinazolin]-10′-yl)piperidin-1-yl)methyl)cyclohexyl)-1H-1,2,3-triazol-1-yl)-3,3-dimethylbutanoyl)-N—((R)-1-(4-(2,4-dimethyloxazol-5-yl)phenyl)-2-morpholinoethyl)-4-hydroxypyrrolidine-2-carboxamide] as the compound, how does the DC50 (SMARCA2; [1]) read?
Answer: 10 to 100 nM

Question: What about the Dmax (SMARCA2; [1]) of the same compound?
Answer: 70 to 90%

Question: What about the DC50 (SMARCA4; [2]) of the same compound?
Answer: > 1000 nM

Question: And the Dmax (SMARCA4; [3])?
Answer: < 50%

Question: Which results are given for `Cc1ncsc1-c1ccc([C@H](C)NC(=O)[C@@H]2C[C@@H](O)CN2C(=O)[C@@H](n2cc([C@H]3CC[C@H](CN4CCC(c5cnc6c(c5)-n5c(nc(=O)c7c(Br)cccc75)C65CCCCC5)CC4)CC3)nn2)C(C)(C)C)cc1` [Compound A76, (2S,4R)-1-((S)-2-(4-((1r,4S)-4-((4-(4′-bromo-5′-oxo-5′H-spiro[cyclohexane-1,7′-pyrido[2′,3′: 4,5]pyrrolo[1,2-a]quinazolin]-10′-yl)piperidin-1-yl)methyl)cyclohexyl)-1H-1,2,3-triazol-1-yl)-3,3-dimethylbutanoyl)-4-hydroxy-N—((S)-1-(4-(4-methylthiazol-5-yl)phenyl)ethyl)pyrrolidine-2-carboxamide]?
Answer: DC50 (SMARCA2; [1]): < 10 nM; Dmax (SMARCA2; [1]): > 90%; DC50 (SMARCA4; [2]): > 1000 nM; Dmax (SMARCA4; [3]): < 50%
